The values below come from PMC3489612, “Exploring flubendazole formulations for use in sheep. Pharmacokinetic evaluation of a cyclodextrin-based solution” (BMC Veterinary Research, 2012).

Data set [1] is described as follows: In vitro aqueous solubility of BZD compounds with or without HPßCD (10%). Conditions: for aqueous solubility: 25°C, n = 6, mean ± SD; for HPßCD-induced solubility increasing effect: pH 1.2, with versus without HPßCD (10%); for solubility at 2 weeks: 25 °C, thermodynamic from solid. The procedure:
BZD solubilities were determined in aqueous solutions at pH values of 1.2 (HCl/KCl) and 7.4 (KH2PO4) with or without HPßCD (10%). An excess amount of ABZ, ABZSO, MBZ, OFZ or FLBZ was suspended in glass tubes containing 10 mL of each medium. The tubes were placed in a water bath at 25°C with a constant shaken rate of 100 strokes/min for two weeks (Yamato BT-31, Yamato Scientific Co., Japan). […] The supernatants were collected and filtered through a 0.2 μm filter (Whatman Inc., NJ, USA). After filtration, samples were analyzed for drug quantification by HPLC following the method described below.
Experimental and fortified samples of plasma and abomasal fluid were analyzed for FLBZ, R-FLBZ, H-FLBZ and the internal standard (OBZ) by HPLC following the method described by Moreno et al.. Briefly, 50 μL of sample were injected in a Shimadzu 10 A HPLC System (Kyoto, Japan), using an UV detector set at 292 nm, an autosampler and a controller (Shimadzu Class LC10, Kyoto, Japan). Elution from the stationary phase (Selectosil C18 column, 5 μm, 250 × 4.6 mm, Phenomenex®, CA, USA) has been carried out at a flow rate of 1.2 mL/min, using a mixture of acetonitrile:potassium phosphate buffer (25 mM, pH 5.3) (40:60) as a mobile phase, during 13 min at 30°C.

Data set [2] relates to parasite motility. The arrangement: method as in PMID 9421720. Conditions: cited from earlier work.
The test system of data set [3] is ß-tubulin. The arrangement: method as in PMID 15463312. Particulars: cited from earlier work.
For data set [4] the following is noted: in vivo. The procedure: (§1) FLBZ-solution (2% w/v) was prepared by dissolution of 2 g of pure FLBZ and 10 g of HPßCD in 100 mL of dionized water (pH 1.2). The pH was adjusted using hydrochloric acid (25 mM). The formulation was shaken during 48 h (40°C) and then was filtrated through a 0.45 μm filter (Whatman, NJ, USA). The final FLBZ concentration was confirmed by HPLC (n = 4). The FLBZ suspension (2% w/v) was performed by addition of 2 g FLBZ pure standard in a suspension of CMC (0.5% w/v) prepared with deionized water (100 mL, pH = 6.0) under shaking (24 h). The FLBZ suspension was vigorously shaken before its administration to sheep.
(§2) Six (6) parasite-free Corriedale male sheep (average weight: 50.6 ± 6.0 kg) were used in this experiment. Animals were kept indoors with commercial balanced food and water ad libitum for two months prior and during the trial. Four (4) animals were surgically fitted with a permanent cannula in the pyloric region of the abomasum following an adaptation of the technique described by Komarek. A 6-week post-surgery recovery period was allowed before starting the pharmacokinetic trials. […]
(§3) Experimental and fortified samples of plasma and abomasal fluid were analyzed for FLBZ, R-FLBZ, H-FLBZ and the internal standard (OBZ) by HPLC following the method described by Moreno et al.. […]

Data set [5] in a line: Abomasal fluid pharmacokinetics after intraruminal (i.r.) administration of FLBZ formulations (Experiment 1). It is filed as in vivo. Particulars: sheep, after i.r. FLBZ administration as both formulations. The procedure: as §1, §2, §3
The mark [6] stands for this setting: aqueous solution (HCl/KCl) with 10% HPβCD, pH 1.2, aqueous with cosolvent or surfactant or cyclodextrin.
Setting [7] is: aqueous solution (HCl/KCl) without HPβCD, pH 1.2, simulated gastric fluid.
[8] abbreviates: aqueous solution (KH2PO4) with 10% HPβCD, pH 7.4, aqueous with cosolvent or surfactant or cyclodextrin.

SMILES strings stand for the structures. Converted amounts (≈) assume the structure as drawn.

As usually defined, the aqueous solubility is the concentration that dissolves in the medium under given conditions. Lower therefore signals little dissolved substance. For `CCC[S+]([O-])c1ccc2[nH]c(NC(=O)OC)nc2c1` (centres unmarked) [Albendazole sulphoxide, albendazole sulphoxide], the highest aqueous solubility in data set [1] (pH 1.2 (value of Table 1 with HPßCD)) is 6600 ± 1300 µg/mL. Besides, the aqueous solubility was found to be 6637.7 ± 1370.2 µg/mL (≈ 23600 µM) in data set [1] (pH 1.2, with HPßCD (10%)); 3818.6 ± 202.1 µg/mL (≈ 13600 µM) in data set [1] (pH 1.2, without HPßCD); 871.9 ± 129.3 µg/mL (≈ 3100 µM) in data set [1] (pH 7.4, with HPßCD (10%)); 83.6 ± 7.6 µg/mL (≈ 297 µM) in data set [1] (pH 7.4, without HPßCD). In addition, in data set [1], the “HPßCD-induced solubility increasing effect” value was found to be 0.7 fold.
The solubility is how much of the substance goes into solution per volume. On to `CCCSc1ccc2nc(NC(=O)OC)[nH]c2c1` [Albendazole], for which the solubility at 2 weeks was 921 ± 347 µg/mL (≈ 3470 µM) in data set [1] (pH 1.2, aqueous with cosolvent or surfactant or cyclodextrin); 406 ± 53.4 µg/mL (≈ 1530 µM) in data set [1] (pH 1.2, simulated gastric fluid); 4.6 ± 1.3 µg/mL (≈ 17.3 µM) in data set [1] (pH 7.4, aqueous buffer); 43 ± 8.3 µg/mL (≈ 162 µM) in data set [1] (pH 7.4, aqueous with cosolvent or surfactant or cyclodextrin). The “HPßCD-induced solubility increasing effect” value in data set [1] was determined as 1.3 fold.
In the case of `COC(=O)Nc1nc2cc(C(=O)c3ccc(F)cc3)ccc2[nH]1` [Flubendazole], the solubility at 2 weeks is 2250 ± 552 µg/mL (≈ 7190 µM) in data set [1] (setting [6]); 29.6 ± 2.8 µg/mL (≈ 94.5 µM) in data set [1] (setting [7]); 164 ± 120 µg/mL (≈ 523 µM) in data set [1] (setting [8]); 5.8 ± 7 µg/mL (≈ 18.5 µM) in data set [1] (aqueous solution (KH2PO4) without HPβCD, pH 7.4, aqueous buffer). Further, the “potency in parasite motility test” value in data set [2] is recorded as “high potency”. In addition, the “affinity binding for ß-tubulin” value in data set [3] is given as “high affinity binding”.
On to `Nc1nc2ccc(C(=O)c3ccc(F)cc3)cc2[nH]1` [H-FLBZ], for which the “time of detection in plasma (low concentrations)” value in data set [4] was in the range of 18 to 48 h.
As for `COC(=O)Nc1nc2ccc([S+]([O-])c3ccccc3)cc2[nH]1` (centres unmarked) [Oxfendazole, oxfendazole], the solubility at 2 weeks in data set [1] (setting [6]) is 1900 ± 606 µg/mL (≈ 6030 µM); in data set [1] (setting [7]) it was 420 ± 29.2 µg/mL (≈ 1330 µM); in data set [1] (setting [8]), 348 ± 46.8 µg/mL (≈ 1100 µM). The “HPßCD-induced solubility increasing effect” value in data set [1] amounted to 35 fold.
`COC(=O)Nc1nc2ccc(C(O)c3ccc(F)cc3)cc2[nH]1` (centres unmarked) [R-FLBZ, reduced flubendazole]: the “time of detection in abomasal fluid post-treatment” value in data set [5] was “up to 96 h”.
